According to US6008188A, “Cytokine potentiator and pharmaceutical formulation for cytokine administration” (Kanebo Limited, priority 1994, dated 1999):
Like-named read-outs stand apart in the source and are kept apart here.

Assays:
[1] = system: Japanese native, male house rabbits; details: rabbit, in vivo
Method: Aqueous solutions of N-Methyl-L-Serine, Ethanolamine and N-Methylethanolamine that had been adjusted to have a pH of 7 with hydrochloric acid were used as test samples.
Using Japanese native, male house rabbits (body weight: about 3 kg), the test samples were tested according to the Draize method (see Appraisal of the Safety of Chemicals in Foods, Drugs and Cosmetics, p. 46, 1959, edited and published by the Deitorial Committee, Association of Food and Drug Officials of U.S.A.).
24 hours after the last application, the tested area of each rabbit was checked to score the erythema, edema, scab and rhagades, if any, formed in the area.
The erythema score, the edema score, the scab score, and the rhagades score as referred to in Table 17 were summed up to obtain the cumulative stimulation score.
Next, from the cumulative stimulation scores, obtained were the degrees of stimulation with N-Methyl-L-Serine, Ethanolamine and N-Methylethanolamine,according to the criteria shown in Table 18 below.

[2] = system: Japanese native, male house rabbits; details: rabbit, in vivo; remark: listed apart in the source
Method: Aqueous solutions of N-methyl-L-serine, ethanolamine and N-methylethanolamine that had been adjusted to have a pH 7 with hydrochloric acid were used as test samples.
Using Japanese native, male house rabbits (body weight: about 3 kg), the test samples were tested according to the above-mentioned the Draize method.
Precisely, the back of each rabbit was shaven and rubbed to form a scratched site (scratched skin). An adhesive tape for patch test (1.2×1.6 cm; Ribbon Aid, registered trade mane, produced by River Tape Chemicals Co.) as wetted with 0.1 ml of water, or 0.1 ml of an aqueous 1% (W/V) solution of the test compound was stuck onto the scratched skin and the normal skin. […] In addition, 48 hours after the peeling of the tape, the condition of the skin was also observed.
The scores as referred to in Table 21 were obtained, and the primary stimulation score was calculated according to the following equation.
Primary Stimulation Score=[(A+B)/2]+[(C+D)/2]+[(E+F)/2]+[(G+H)/2]
Next, from the primary stimulation scores, obtained was the degree of stimulation with N-Methyl-L-Serine or Ethanolamine or N-Methylethanolamineaccording to the criteria shown in Table 22 below.

[3] = system: healthy panelists; details: in vivo
Method: Aqueous solutions of N-methyl-L-serine, ethanolamine and N-methylethanolamine that had been adjusted to have a pH 7 with hydrochloric acid were used as test samples. These test samples were applied to 19 healthy panelists.
One hour and 24 hours after the removal of the patch, the condition of the skin of each panelist was observed.

[4] = system: Normal human fibroblasts [CCD45SK (ATCC CRL 1506)]; experiment: Response to βFGF: procollagenase production by normal human fibroblasts CCD45SK (Test Examples 1-3); type: cell-based; details: for activity at 1000 µM: Homo sapiens, Fibroblast, read-out: Response to βFGF Increment; for Procollagenase Production: mean ± SD, n = 3
Method: In the following tests, the procollagenase production was quantified in terms of the collagenase activity as obtained through activation with trypsin.
It is known that βFGF promotes procollagenase production. In the following tests, therefore, the βFGF activity increment as attained by the compound added was calculated from the procollagenase production, relative to the control using purified water in place of the test compound.
Normal human fibroblasts [CCD45SK (ATCC CRL 1506) as prepared from the skin of a person] were suspended at a cell density of 1×10^5 cells/ml in the MEM medium, comprising 10% (V/V) FBS and 1% (V/V) non-essential amino acids (produced by Dai-Nippon Pharmaceutical Co.). The suspended cells were seeded into each well of a 12-well plate in an amount of 0.8 ml/well (corresponding to 8×10^4 cells/well) and incubated in a saturated aqueous vapor with 5% CO2 at 37° C. […]
After having been incubated for 24 hours, the culture medium was removed from the plate by suction, and the cells remained were washed twice with an MEM medium containing 0.6% (v/v) (as final concentration) of FBS. Then, the cells were fed with 0.8 ml of the solution prepared above added to the cells, which were incubated for 2 days.
After the 2 days incubation, the culture medium was removed from the plate by suction, and the cells were fed with 0.8 ml of the solution and were further incubated for 2 days. This operation was repeated once again. Thus, the cells were processed in the medium containing the cytokine activity enhancer for 6 days in total.
After the above-mentioned process, the culture medium was removed from the plate by suction, and the cells were fed with 0.8 ml of an MEM medium containing 3 ng/ml of βFGF (produced by Boehringer Manheim Co.) and 0.6% (V/V) FBS, and were incubated for 3 days to obtain a culture supernatant.
3.5 ml of 10 mM Tris-HCl buffer [adjusted at pH 7.8 at 4° C., containing 1 mM calcium chloride and 0.05% (W/V) Brij-35] was added to 500 μl of the thus-obtained culture supernatant, and applied to CM-Sepharose CL-6B (trade name, produced by Pharmacia Co., having a bed volume of 0.5 ml) as previously equilibrated with the same buffer.
Next, the inhibitor was removed through treatment with 0.5 ml of the same buffer as above but containing 125 mM sodium chloride (4 times in all, 2 ml of the buffer was used in total), and the procollagenase was recovered through treatment with 0.5 ml of the same buffer as above but containing 500 mM sodium chloride (4 times in all, 2 ml of the buffer was used in total). This was used as a test sample.
The test sample was suitably diluted with a buffer for measurement (mentioned above), 25 μl of the thus-diluted sample was mixed with 25 μl of the buffer, 20 μl of a trypsin solution (as prepared by adding trypsin, Type 12 (produced by Sigma Co.) to the buffer at a concentration of 1 mg/ml) was added thereto, and this was incubated at 35° C. for 5 minutes. Then, 30 μl of a soybean trypsin inhibitor solution (as prepared at a concentration of 3 mg/ml, using the buffer) was added to this to thereby inactivate the trypsin. The resulting solution is designated collagenase solution.
Using type I collagen as labeled with fluorescein isothiocyanate (hereinafter referred to as FITC) (this is an acetic acid solution of FITC-collagen having a concentration of 1 mg/ml; produced by Cosmo-Bio Co.), as a substrate solution, the collagenase activity (unit/ml) of the solution was measured according to the method of Nagai et al. (see Inflammations, Vol. 4, No. 2, p. 123, 1984). […] The procollagenase production (unit/ml of culture medium) was thus obtained and referred to as X1.

[5] = system: male ICR mice; experiment: Acute Toxicity Test; details: oral, 5 g/kg of body weight; observed for 7 days
Method: Water, or an aqueous solution of N-Methyl-L-Serine (this was prepared to have a concentration of 5 g/kg of body weight of test animal, as a sample) was orally administered to male ICR mice (5 weeks-age; body weight, 24 to 28 g; 5 mice in one group), in an amount of […] of body weight.

With CN[C@@H](CO)C(=O)O [Example 1, N-methyl-L-serine] the “cumulative stimulation to the skin (in words)” value [1] was “low”, the “Primary Stimulation Score” value [2] was 0 and the “stimulation to the skin (in words)” value [2] was “low”. For the same compound, the panelists with erythema [3] was “only one panelists had minor erythema”, the “concentration dependence of increase in procollagenase production / response to βFGF” value ([4]; 0.01 to 10 mM) was “in a concentration-dependent manner” and the activity at 1000 µM ([4]; 144 h, Test Example 1, 1 mM, 6 days, 3 ng/ml βFGF, control (purified water) = 100) was 220%. The activity at 1000 µM ([4]; Test Example 2, 0.01 mM, control = 100) was 100%, the activity at 1000 µM ([4]; Test Example 2, 1.0 mM, control = 100) was 130% and the “Procollagenase Production” value ([4]; Test Example 1, 1 mM, 6 days, 3 ng/ml βFGF) was 15 ± 1.0 unit/ml. For the same compound, the “Procollagenase Production” value ([4]; Test Example 2, 0.01 mM) was 15 ± 3.3 unit/ml, the “Procollagenase Production” value ([4]; Test Example 2, 0.1 mM) was 17 ± 2.9 unit/ml and the “Procollagenase Production” value ([4]; Test Example 2, 0.3 mM) was 24 ± 3.5 unit/ml. For the same compound, the “Procollagenase Production” value ([4]; Test Example 2, 1.0 mM) was 19 ± 1.3 unit/ml, the “Procollagenase Production” value ([4]; Test Example 2, 3.0 mM) was 26 ± 1.5 unit/ml and the “Procollagenase Production” value ([4]; Test Example 2, 10 mM) was 32 ± 2.2 unit/ml. The deaths of mice [5] was “No mice of the test group to which N-Methyl-L-Serine was administered died”.
